Results taken from patent publication US6852719B2, “Glucocorticoid receptor modulators” (Pfizer Inc., priority 2000, dated 2005).

What was measured:
[1] = tested on: MMP-1 production in SW1353 human chondrosarcoma cells; assay: glucocorticoid inhibition of IL-1 induced MMP-1 production in human chondrosarcoma cells; format: cell-based; settings: 20 ng/ml IL-1 beta, 72 hours after IL-1 addition, ELISA, read-out: IC50, inhibition of MMP1 expression
Experimental: (§1) This assay, the glucocorticoid inhibition of IL-1 (Interleukin-1) induced MMP-1 (Matrix Metalloproteinase-1) and IL-8 (Interleukin-8) production in human chondrosarcoma cells, is conducted as follows: SW1353 human chondrosarcoma cells (obtained from ATCC) from passage 12 through passage 19 are used in a 96 well format assay. Cells are plated at confluence into 96 well plates in DMEM (Dulbecco's Modified Eagle Medium) with 10% fetal bovine serum and incubated at 37° C., 5% CO2. After 24 hours, serum containing media is removed and replaced with 200 ul/well DMEM containing 1 mg/L insulin, 2 g/L lactalbumin hydrosylate, and 0.5 mg/L ascorbic acid and returned to incubation at 37° C., 5% CO2. […] IL-8 production is assessed using the Quantikine human IL-8 ELISA kit from R & D Systems (D8050) on samples diluted 60-fold in RD5P Calibrator Diluent, following the manufacturer's protocol. The percent of the average IL-1 control is determined for the average of each of the triplicate samples following subtraction of the average signal from untreated cells. IC50's are determined from log linear plots of the percent of control versus the concentration of inhibitor. […] MMP-1 production is assessed via the Bio-Trak MMP-1 ELISA kit from Amersham (RPN2610) on 100 ul of neat sample following the manufacturer's protocol. […]

[2] = tested on: IL-8 production in SW1353 human chondrosarcoma cells; assay: glucocorticoid inhibition of IL-1 induced IL-8 production in human chondrosarcoma cells; format: cell-based; settings: 20 ng/ml IL-1 beta, 24 hours after IL-1 addition, ELISA, read-out: IC50, inhibition of IL-8 expression
Experimental: as §1

C[C@@H]1C[C@H]2[C@@H]3CCC4=CC(=O)C=C[C@]4(C)[C@@]3(F)[C@@H](O)C[C@]2(C)[C@@]1(O)C(=O)CO [Dexamethasone, (11β, 16α)-9-fluoro-11,17,21-trihydroxy-16-methylpregna-1,4-diene-3,20-dione]
IC50 [1]: 5 nM
IC50 [2]: 5 nM
